Reference: patent EP4631938A1, “NITROGEN-CONTAINING HETEROCYCLE WITH SEROTONIN RECEPTOR-BINDING ACTIVITY AND CARBOCYCLIC DERIVATIVE” (Shionogi & Co., Ltd, priority 2022, dated 2024)

What was measured:
[1] = target: T1, human recombinant 5-HT2A receptor (Homo sapiens, UniProt P28223); assay: Test Example 1-2: 5-HT2A receptor binding inhibition test ([3H]-Ketanserin; non-specific ligand Ketanserin); settings: [3H]-Ketanserin; non-specific binding with 500 µmol/L Ketanserin; room temperature (25°C), 1.5 hours; read-out: h 5-HT2A Ki
T1 construct: expressed in transfected cells; host or cells: Jump-In HEK cells (membrane preparation)
Experimental: The Kd value is calculated when the lot of the cell membrane is changed. 1 mmol/L non-specific binding calculating compound dissolved in DMSO or DMSO is previously dispensed to the microplate by 0.5 µL, and the cell membrane is diluted with an Assay buffer. The radioactive ligand solution is diluted step by step, and counts are checked with a liquid scintillator. The Assay buffer containing diluted cell membranes is dispensed by 50 µL/well into the microplate. The radioactive ligand solution is then dispensed by 50 µL/well into the microplate and the plate is sealed. The microplate is allowed to stand for 1.5 hours at room temperature (25°C). During this time, 50 mmol/L Tris-HCl (pH 7.4) is dispensed by 50 µL/well into the UniFilter plate and allowed to stand at 4°C for 1 hour or longer. Thereafter, filtration is performed with a Cell Harvester (PerkinElmer). The radioactive ligand solution is dispensed by 10 µL/well into empty wells of the UniFilter plate. After drying the UniFilter plate at room temperature, MicroScinti20 is dispensed by 50 µL/well into the UniFilter plate, and the plate is sealed. UniFilter plate is allowed to stand at room temperature overnight. The radioactivity of [^3H]-Ketanserin bound to the 5-HT2A receptor is measured using Microbeta2 (PerkinElmer) at a measurement time of 1 min/well. The Saturation curve is drawn from the measured value, and the Kd value is calculated from the slope of the Scatchard Plot.
A compound solution dissolved in DMSO is dispensed to a microplate by 0.5 µL, and a cell membrane and a hot ligand are each diluted with an Assay buffer. The Assay buffer containing diluted cell membrane is then dispensed by 50 µL/well into the microplate. The radioactive ligand solution is then dispensed by 50 µL/well into the microplate and the plate is sealed. Thereafter, the microplate is allowed to stand at room temperature (25°C) for 1.5 hours. During this time, 50 mmol/L Tris-HCl (pH 7.4) is dispensed by 50 µL/well into the UniFilter plate and allowed to stand at 4°C for 1 hour or longer. Thereafter, filtration is performed with a Cell Harvester (PerkinElmer). After drying the UniFilter plate at room temperature, MicroScinti20 is dispensed by 50 µL/well into the UniFilter plate, and the plate is sealed. UniFilter plate is allowed to stand at room temperature overnight. The radioactivity of [^3H]-Ketanserin bound to the 5-HT2A receptor is measured using Microbeta2 (PerkinElmer) at a measurement time of 1 min/well. Non-specific binding is calculated from the radioactivity of [^3H]-Ketanserin in the presence of 500 µmol/L Ketanserin of unlabeled ligand, and total binding is calculated from the radioactivity of [^3H]-Ketanserin in the absence of the compound of the present invention (Vehicle). Finally, the Ki value is calculated from the dose-response curve.
(§1) (The binding activity of the compound according to the present invention is calculated from the following binding inhibition rate (%).) Inhibition rate (%) = [1−(c−a)/(b−a)] × 100 [formula] • a; average cpm of non-specific binding • b; average cpm of total binding • c; cpm in the presence of the test compound
(§2) The compounds of the present invention were tested essentially as described above.

[2] = target: T2, human recombinant 5-HT2C receptor (Homo sapiens, UniProt P28335); assay: Test Example 2: 5-HT2C receptor binding inhibition test ([3H]-Mesulergine; non-specific ligand Serotonin HCl); settings: human serotonin 5-HT2C receptor binding activity
T2 construct: expressed in transfected cells; host or cells: Jump-In HEK cells (membrane preparation)
T2 sequence (P28335 33-458): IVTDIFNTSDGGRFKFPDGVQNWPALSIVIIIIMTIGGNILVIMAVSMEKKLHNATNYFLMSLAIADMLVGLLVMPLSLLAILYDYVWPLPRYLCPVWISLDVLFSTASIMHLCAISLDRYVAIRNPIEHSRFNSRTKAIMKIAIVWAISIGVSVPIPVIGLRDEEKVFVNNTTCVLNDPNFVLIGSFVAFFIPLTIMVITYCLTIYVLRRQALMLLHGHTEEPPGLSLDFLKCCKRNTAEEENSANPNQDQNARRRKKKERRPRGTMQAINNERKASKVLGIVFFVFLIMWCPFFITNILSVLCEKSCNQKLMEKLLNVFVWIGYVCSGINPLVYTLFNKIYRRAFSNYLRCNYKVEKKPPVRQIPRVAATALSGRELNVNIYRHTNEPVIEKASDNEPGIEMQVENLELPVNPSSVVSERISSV
Experimental: The Kd value is calculated when the lot of the cell membrane is changed. 1 mmol/L non-specific binding calculating compound dissolved in DMSO or DMSO is previously dispensed to the microplate by 0.5 µL, and the cell membrane is diluted with an Assay buffer. The radioactive ligand solution is diluted step by step, and counts are checked with a liquid scintillator. The Assay buffer containing diluted cell membranes is dispensed by 50 µL/well into the microplate. The radioactive ligand solution is then dispensed by 50 µL/well into the microplate and the plate is sealed. The microplate is allowed to stand at 37°C for 2 hours. During this time, 50 mmol/L Tris-HCl (pH 7.4) is dispensed by 50 µL/well into the GF/B UniFilter plate and allowed to stand at 4°C for 1 hour or longer. Thereafter, filtration is performed with a Cell Harvester (PerkinElmer). The radioactive ligand solution is dispensed by 10 µL/well into empty wells of the GF/B UniFilter plate. After drying the GF/B UniFilter plate at room temperature, MicroScinti20 is dispensed by 50 µL/well into the GF/B UniFilter plate, and the plate is sealed. GF/B UniFilter plate is allowed to stand at room temperature overnight. The radioactivity of [^3H]-Mesulergine bound to the 5-HT2C receptor is measured using Microbeta2 (PerkinElmer) at a measurement time of 1 min/well. The Saturation curve is drawn from the measured value, and the Kd value is calculated from the slope of the Scatchard Plot.
A compound solution dissolved in DMSO is dispensed to a microplate by 0.5 µL, and a cell membrane and a hot ligand are each diluted with an Assay buffer. The Assay buffer containing diluted cell membrane is then dispensed by 50 µL/well into the microplate. The radioactive ligand solution is then dispensed by 50 µL/well into the microplate and the plate is sealed. The microplate is then allowed to stand at 37°C for 2 hours. During this time, 50 mmol/L Tris-HCl (pH 7.4) is dispensed by 50 µL/well into the GF/B UniFilter plate and allowed to stand at 4°C for 1 hour or longer. Thereafter, filtration is performed with a Cell Harvester (PerkinElmer). After drying the GF/B UniFilter plate at room temperature, MicroScinti20 is dispensed by 50 µL/well into the GF/B UniFilter plate, and the plate is sealed. GF/B UniFilter plate is allowed to stand at room temperature overnight. The radioactivity of [^3H]-Mesulergine bound to the 5-HT2C receptor is measured using Microbeta2 (PerkinElmer) at a measurement time of 1 min/well. Non-specific binding is calculated from the radioactivity of [^3H]-Mesulergine in the presence of 500 µmol/L Serotonin HCl of unlabeled ligand, and total binding is calculated from the radioactivity of [^3H]-Mesulergine in the absence of the compound of the present invention (Vehicle). Finally, the Ki value is calculated from the dose-response curve.
as §1, §2

T1 sequence (P28223 whole entry): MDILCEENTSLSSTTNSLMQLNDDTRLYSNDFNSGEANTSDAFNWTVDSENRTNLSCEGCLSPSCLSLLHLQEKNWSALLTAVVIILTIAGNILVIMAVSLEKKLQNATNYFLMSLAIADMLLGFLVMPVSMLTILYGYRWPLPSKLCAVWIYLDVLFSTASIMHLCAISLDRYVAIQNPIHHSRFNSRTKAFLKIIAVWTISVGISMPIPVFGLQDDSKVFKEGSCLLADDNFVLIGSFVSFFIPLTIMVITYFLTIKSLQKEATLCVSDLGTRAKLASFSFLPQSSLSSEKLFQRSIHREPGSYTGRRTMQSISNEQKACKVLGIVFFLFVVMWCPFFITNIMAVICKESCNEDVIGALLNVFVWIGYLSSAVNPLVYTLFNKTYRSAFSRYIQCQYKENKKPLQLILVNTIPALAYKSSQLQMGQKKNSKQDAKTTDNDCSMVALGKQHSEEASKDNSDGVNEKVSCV

Ki [1] [nM]	Ki [2] [nM]	Compound
0.268	1.91	Cc1cc(C(F)(F)F)cnc1Nc1cc(-c2c(C)cnn2C)c(OCCO)cn1 [Compound I-226]
1.21	26.7	O=C1NCCc2c1cccc2-c1cc(Nc2ncc(C(F)(F)F)cc2F)ncc1OCCO [Compound I-227]
0.28	2.22	Cn1ncc(Cl)c1-c1cc(Nc2ccc(OC(C)(F)F)cn2)ncc1OCCO [Compound I-229]
0.576	0.372	COCc1nc(C)c(-c2cc(Nc3ncc(-c4ccc(F)cc4)cc3Cl)ncc2OCCO)c(C)n1 [Compound I-230]
3.78	5.1	COCc1nc(C)c(-c2cc(Nc3ncc(OC(F)F)cc3Cl)ncc2OCCO)c(C)n1 [Compound I-231]
8.27	6.06	COCc1nc(C)c(-c2cc(Nc3ncc(OCC(F)(F)F)cc3Cl)ncc2OCCO)c(C)n1 [Compound I-232]
4.42	1.76	COCc1nc(C)c(-c2cc(Nc3ncc(OCC(F)(F)C(F)(F)F)cc3Cl)ncc2OCCO)c(C)n1 [Compound I-233]
0.525	0.167	COCc1nc(C)c(-c2cc(Nc3ncc(-c4ccc(Cl)c(F)c4)cc3Cl)ncc2OCCO)c(C)n1 [Compound I-234]
0.925	0.984	COCc1nc(C)c(-c2cc(Nc3ncc(-c4ccc(Cl)cn4)cc3Cl)ncc2OCCO)c(C)n1 [Compound I-235]
1.24	0.727	COCc1nc(C)c(-c2cc(Nc3ncc(-n4cc(Cl)cn4)cc3Cl)ncc2OCCO)c(C)n1 [Compound I-236]
7.43	7.37	COCc1nc(C)c(-c2cc(Nc3ncc(-c4cnn(C(F)F)c4)cc3Cl)ncc2OCCO)c(C)n1 [Compound I-237]
5.12	2.64	COCc1nc(C)c(-c2cc(Nc3ncc(OCCCC(F)(F)F)cc3Cl)ncc2OCCO)c(C)n1 [Compound I-238]
2.3	1.35	COCc1nc(C)c(-c2cc(Nc3ncc(-c4ncc(Cl)cn4)cc3Cl)ncc2OCCO)c(C)n1 [Compound I-239]
2.05	1.54	COCc1nc(C)c(-c2cc(Nc3ncc(-c4nc(C(F)(F)F)co4)cc3Cl)ncc2OCCO)c(C)n1 [Compound I-240]
0.799	0.637	COCc1nc(C)c(-c2cc(Nc3ncc(-c4ccc(C#N)cc4)cc3Cl)ncc2OCCO)c(C)n1 [Compound I-241]
0.258	0.337	COCc1nc(C)c(-c2cc(Nc3ncc(-c4ccc(C(F)F)cc4)cc3Cl)ncc2OCCO)c(C)n1 [Compound I-242]
3.58	2.53	COCc1nc(C)c(-c2cc(Nc3ncc(-c4cnn(C(F)(F)F)c4)cc3Cl)ncc2OCCO)c(C)n1 [Compound I-243]

Ki [1] [nM]	Ki [2] [nM]	Compound
3.75	2.87	COCc1nc(C)c(-c2cc(Nc3ncc(-c4ccc(C#N)nc4)cc3Cl)ncc2OCCO)c(C)n1 [Compound I-244]
5.85	1.41	COCc1nc(C)c(-c2cc(Nc3ncc(-c4cnc(C(F)(F)F)nc4)cc3Cl)ncc2OCCO)c(C)n1 [Compound I-245]
2.7	5.25	COCc1nc(C)c(-c2cc(Nc3ncc(-c4ccnc(C(F)(F)F)c4)cc3Cl)ncc2OCCO)c(C)n1 [Compound I-246]
0.794	4.78	COCc1nc(C)c(-c2cc(Nc3ccc(C(F)(F)F)c(C)n3)ncc2OCCO)c(C)n1 [Compound I-248]
5.19	4.29	COCc1nc(C)c(-c2cc(Nc3ncc(-c4ncc(F)cn4)cc3Cl)ncc2OCCO)c(C)n1 [Compound I-249]
0.325	0.393	COCc1nc(C)c(-c2cc(Nc3ncc(-c4ccc(F)cc4)cc3F)ncc2OCCO)c(C)n1 [Compound I-251]
3.95	3.17	COCc1nc(C)c(-c2cc(Nc3ncc(-c4ncc(F)cc4F)cc3Cl)ncc2OCCO)c(C)n1 [Compound I-252]
2.74	4.42	COCc1nc(C)c(-c2cc(Nc3ncc(-c4ncc(OC)cn4)cc3Cl)ncc2OCCO)c(C)n1 [Compound I-253]
0.496	0.278	COCc1nc(C)c(-c2cc(Nc3ncc(-c4ccc(F)c(F)c4)cc3Cl)ncc2OCCO)c(C)n1 [Compound I-254]
0.52	0.36	COCc1nc(C)c(-c2cc(Nc3ncc(-c4ccc(F)c(Cl)c4)cc3Cl)ncc2OCCO)c(C)n1 [Compound I-255]
0.5	0.322	COCc1nc(C)c(-c2cc(Nc3ncc(-c4ccc(F)cc4F)cc3Cl)ncc2OCCO)c(C)n1 [Compound I-256]
0.395	0.316	COCc1nc(C)c(-c2cc(Nc3ncc(-c4cccc(F)c4)cc3Cl)ncc2OCCO)c(C)n1 [Compound I-257]
0.933	0.301	COCc1nc(C)c(-c2cc(Nc3ncc(-c4cc(F)cc(F)c4)cc3Cl)ncc2OCCO)c(C)n1 [Compound I-258]
0.672	0.623	COCc1nc(C)c(-c2cc(Nc3ncc(-c4cccc(F)c4F)cc3Cl)ncc2OCCO)c(C)n1 [Compound I-259]
2.05	2.06	COCc1nc(C)c(-c2cc(Nc3ncc(-c4cccc(C#N)c4)cc3Cl)ncc2OCCO)c(C)n1 [Compound I-260]
0.608	0.482	COCc1nc(C)c(-c2cc(Nc3ncc(-c4ccc(OC(F)F)cc4)cc3Cl)ncc2OCCO)c(C)n1 [Compound I-261]
